Results on 12 molecules are retold here after patent US7476666B2, “HIV integrase inhibitors” (Merck & Co., Inc., priority 2004, dated 2009).

Broadly, the IC95 is the concentration at which the effect reaches the 95% level. High values mean weaker potency, low ones greater potency.

This test has as its system acute HIV infection of T-lymphoid cells. Description: Inhibition of acute HIV infection of T-lymphoid cells (spread assay). Format: cell-based. As to conditions: Human immunodeficiency virus 1. Here is the method: An assay for the inhibition of acute HIV infection of T-lymphoid cells (alternatively referred to herein as the “spread assay”) was conducted in accordance with Vacca, J. P. et al., Proc. Natl. Acad. Sci. USA 1994, 91: 4096.
`CN1CCn2nc(C(=O)NCc3ccc(F)cc3S(C)(=O)=O)c(O)c2C1=O` [Example 15, N-[4-Fluoro-2-(methylsulfonyl)benzyl]-3-hydroxy-5-methyl-4-oxo-4,5,6,7-tetrahydropyrazolo[1,5-a]pyrazine-2-carboxamide]: the IC95 is at most 10 µM. Consider `O=C(NCc1ccc(Cl)c(Cl)c1)c1nn2c(c1O)C(=O)N(CCN1CCOCC1)CC2` [Example 22, N-(3,4-Dichlorobenzyl)-3-hydroxy-5-[2-(4-morpholinyl)ethyl]-4-oxo-4,5,6,7-tetrahydropyrazolo[1,5-a]pyrazine-2-carboxamide], for which the IC95 was at most 10 µM.

In turn, `CN1CC(c2ccccc2)n2nc(C(=O)NCc3ccc(F)cc3)c(O)c2C1=O` (stereo not drawn) [Example 2, N-(4-Fluorobenzyl)-3-hydroxy-5-methyl-4-oxo-7-phenyl-4,5,6,7-tetrahydropyrazolo[1,5-a]pyrazine-2-carboxamide] yielded an IC95 of at most 10 µM.

`CCNC(=O)c1cc(F)ccc1CNC(=O)c1nn2c(c1O)C(=O)N(C)C[C@H]2c1ccccc1` [Example 39, (7R)-N-{2-[(Ethylamino)carbonyl]-4-fluorobenzyl}-3-hydroxy-5-methyl-4-oxo-7-phenyl-4,5,6,7-tetrahydropyrazolo[1,5-a]pyrazine-2-carboxamide] returned an IC95 of at most 10 µM. For the molecule `CN1CC(c2ccncc2)n2nc(C(=O)NCc3ccc(F)cc3)c(O)c2C1=O` (stereo not drawn) [Example 45, N-(4-Fluorobenzyl)-3-hydroxy-5-methyl-4-oxo-7-pyridin-4-yl-4,5,6,7-tetrahydropyrazolo[1,5-a]pyrazine-2-carboxamide], the IC95 was at most 10 µM. Consider `CNC(=O)c1cc(F)ccc1CNC(=O)c1nn2c(c1O)C(=O)N(C)C[C@@H]2c1ccccc1` [Example 33, (7S)—N-{4-Fluoro-2-[(methylamino)carbonyl]benzyl}-3-hydroxy-5-methyl-4-oxo-7-phenyl-4,5,6,7-tetrahydropyrazolo[1,5-a]pyrazine-2-carboxamide], for which the IC95 is at most 10 µM. Turning to `O=C(c1nn2c(c1O)C(=O)N(Cc1ccc(F)cc1)CC2)N1CCC1` [Example 27, 2-(Azetidin-1-ylcarbonyl)-5-(4-fluorobenzyl)-3-hydroxy-4-oxo-4,5,6,7-tetrahydropyrazolo[1,5-a]pyrazine], the IC95 is at most 10 µM. To `CN(C)C(=O)c1cc(F)ccc1CNC(=O)c1nn2c(c1O)C(=O)N(C)C[C@H]2c1ccccc1` [Example 37, (7R)-N-{2-[(Dimethylamino)carbonyl]-4-fluorobenzyl}-3-hydroxy-5-methyl-4-oxo-7-phenyl-4,5,6,7-tetrahydropyrazolo[1,5-a]pyrazine-2-carboxamide] belongs at most 10 µM; to `CN1CC(c2cccnc2)n2nc(C(=O)NCc3ccc(F)cc3)c(O)c2C1=O` (stereo not drawn) [Example 31, N-(4-fluorobenzyl)-3-hydroxy-5-methyl-4-oxo-7-pyridin-3-yl-4,5,6,7-tetrahydropyrazolo[1,5-a]pyrazine-2-carboxamide], at most 10 µM. To `CN(Cc1ccc(F)cc1)C(=O)c1nn2c(c1O)C(=O)N(C)CC2` [Example 13, 2-[4-fluorobenzyl(methyl)aminocarbonyl]-3-hydroxy-5-methyl-4-oxo-4,5,6,7-tetrahydropyrazolo[1,5-a]pyrazine-2-carboxamide] belongs at most 10 µM; to `Cc1nc(C2CN(C)C(=O)c3c(O)c(C(=O)NCc4ccc(F)cc4)nn32)cs1` (stereo not drawn) [Example 12, N-(4-Fluorobenzyl)-3-hydroxy-5-methyl-(2-methyl-1,3-thiazol-4-yl)-4-oxo-4,5,6,7-tetrahydropyrazolo[1,5-a]pyrazine-2-carboxamide], at most 10 µM; to `CN1CC(c2ccncc2)n2nc(C(=O)NCc3ccc(F)c(Cl)c3)c(O)c2C1=O` (stereo not drawn) [Example 46, N-(3-Chloro-4-fluorobenzyl)-3-hydroxy-5-methyl-4-oxo-7-pyridin-4-yl-4,5,6,7-tetrahydropyrazolo[1,5-a]pyrazine-2-carboxamide], at most 10 µM.
